Consider two molecules from US20060040919A1, “Bronchorelaxing compounds” (priority 2004, published 2006).

Series [1] concerns human bronchus preparation. The series can be described thus: Bronchorelaxation test: LTD4-induced contraction of human bronchus preparation. The conditions noted are these: 10 μM capsazepine, 1 h exposure, then 10 nM LTD4; compared with control LTD4 contraction; exemplary test of FIG. 7. As for the experimental part: Dissection and mounting of lung tissue preparations. Lung tissue was obtained from patients undergoing lobectomia or pulmectomia due to lung carcinoma. The tissue was placed in a dissection chamber continuously perfused with 10 ml min^−1 of a physiological saline solution (PSS) at room temperature. An airway was identified in the cut part of the lobe, and a bronchus of 10-20 mm length and 1-2 mm diameter was obtained. The bronchus was cut into rings of a width of about 2-3 mm. Each bronchial ring was cleaved to obtain an about rectangular oblong preparation, one end of which was tied to a small steel hook connected to a force transducer, while the other end of the preparation was attached to a fixed hook. This is followed by a period of adjustment, as described below. The preparation was mounted in an atmosphere containing […] and 6% of CO2.
Experimental chamber. The experimental chamber has a volume of 5 ml. It is perfused with PSS at a rate of 3 ml min^−1. Two preparations are mounted in the chamber, and measurements on them are performed in parallel. For mechanical tensioning each force transducer (AME 801, SensoNor A/S, Horten, Norway) is connected to a micrometer screw. The substances to be tested, the reference substance (capsazepine), and transmitter (LTD4) are injected upstream of the preparation(s).
Materials. […]

Molecules are shown by their SMILES.

Molecule `Oc1c(O)c(Cl)c2c(c1Cl)CCN(C(=S)NCCc1ccc(Cl)cc1)C2` [Res-4-95, 5,8-Dichloro-N-[2-(4-chlorophenyl)ethyl]-6,7-dihydroxy-3,4-dihydroisoquinoline-2(1H)-carbothioamide] registered a melting point of 83 to 86 °C.
In the case of `Oc1cc2c(cc1O)CN(C(=S)NCCc1ccc(Cl)cc1)CCC2` [capsazepine], the “remaining contraction (test force) relative to that caused by the control force” value in series [1] was “about 55%”.

The melting point is the temperature of the solid-liquid transition.
